This note sets out measurements from PubChem BioAssay AID2743 (NMMLSC, 2010).

Where “and” joins values, the source holds several entries; their conditions need not be identical. Equal values may be shown once. Calls of active or inactive are those of the source.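 How the source made its calls: active means fitted half-maximal concentration for change in GFP expression of 33 µM or less; inactive means the rest.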

The nature of this experiment: concentration-dependent AGP1-GFP change, TOR pathway – cell-based, flow cytometry, S. cerevisiae, MLPCN hits, dose response (AID 2743). The conditions noted are these: S. cerevisiae AGP1-GFP strain, flow cytometry GFP, 3 h; at 33 µM (top of the series). (A flow cytometer gives signals particle by particle.)
Turning to `O=C(O)/C=C/C(=O)c1ccc2c(c1)CCc1ccccc1-2`, the GFP fluorescence (kMESF) is 18.9 kMESF (inactive). `CC1(C)OC(c2ccccc2)=C/C(=C/C=C2C(=O)NC(=S)NC2=O)O1`: the GFP fluorescence (kMESF) was 36.6 kMESF (inactive). `O=C(Nc1nnc(-c2ccc(F)cc2)o1)c1cccc([N+](=O)[O-])c1`: the GFP fluorescence (kMESF) is 44.5 kMESF (inactive). Take `CC1=C(C)/C(=N\OS(=O)(=O)c2ccccc2)C=CC1=O`: the GFP fluorescence (kMESF) was 41.6 kMESF (inactive). Under `Oc1c(CN2CCN(c3ccccc3)CC2)cc(Br)c2cccnc12` stands 39 kMESF (inactive); under `N#Cc1cc([N+](=O)[O-])c(-n2nnc3ccccc32)c([N+](=O)[O-])c1`, 41.5 kMESF (inactive). `O=C(Cc1ccc(Cl)cc1)NNC(=S)NC(=O)c1cccs1`: the GFP fluorescence (kMESF) is 36.9 kMESF (inactive). In the case of `Oc1c(I)cc(I)c2cccnc12`, the GFP fluorescence (kMESF) was 24.6 kMESF (inactive). Consider `O=C(/C=C/c1ccccc1Cl)c1ccccc(=O)c1O`, for which the GFP fluorescence (kMESF) was 6.58 kMESF (inactive). For the compound `Cc1[nH][nH]c(=O)c1C(c1ccc(-c2ccc(Cl)cc2)o1)c1c(C)[nH][nH]c1=O`, the GFP fluorescence (kMESF) was 39.2 kMESF (inactive). As to `CC(=O)Nc1ncnc2c1c(-c1ccc(Cl)cc1)nn2C(C)(C)C`, the GFP fluorescence (kMESF) was 30.3 kMESF (inactive). For `O=C1c2sc3nc4ccccc4n3c2C(=O)N1c1ccccc1Cl`, the GFP fluorescence (kMESF) was 23.1 kMESF (inactive). Consider `C#CCOCCOCCOCCNc1nc(N2CCN(C(=O)CCCCCCCCCCNC(=O)[C@H](CCCCN)n3cc(C)nn3)CC2)nc(N2CCN(C(=O)CCCCCCCCCCNC(=O)[C@H](CCCN=C(N)N)n3cc(C[C@@H](C)CC)nn3)CC2)n1`, for which the GFP fluorescence (kMESF) was 43.6 kMESF (inactive). Take `COc1ccc(C(=O)/C=C2/C(=O)Nc3ccccc32)c(OC)c1`: the GFP fluorescence (kMESF) is 43.2 kMESF (inactive). In the case of `Cc1cc(NC(=O)c2cccnc2Cl)ccc1NC(=O)c1cc2ccccc2o1`, the GFP fluorescence (kMESF) is 42.4 kMESF (inactive).

Regarding `O=C(/C=C/c1ccccc1[N+](=O)[O-])c1ccccc1Br`, the GFP fluorescence (kMESF) is 50.7 kMESF (inactive).

For `O=C1ON=C(c2ccccc2)/C1=C\c1ccco1`, the GFP fluorescence (kMESF) was 42.7 kMESF (inactive). On to `COc1cccc(N=Nc2ccc(O)c3ncccc23)c1`, for which the GFP fluorescence (kMESF) is 45.7 kMESF (inactive). On to `CC(C)Cn1c(=O)c(C(=O)Nc2ccncc2)c(O)c2ccccc21`, for which the GFP fluorescence (kMESF) was 16.1 kMESF (inactive). With `Cc1cc(=O)oc2cc(Oc3ccc([N+](=O)[O-])cc3C(F)(F)F)ccc12`, the GFP fluorescence (kMESF) was 42.1 kMESF (inactive). Regarding `O=[N+]([O-])c1cc(Cl)cc(/C=N\Nc2ccccn2)c1O`, the GFP fluorescence (kMESF) was 30.3 kMESF (inactive). Turning to `Nc1ccccc1SC(C[N+](=O)[O-])c1ccccc1` (configuration not stated), the GFP fluorescence (kMESF) is 39.9 kMESF (inactive). Under `Cc1ccc(/C=C/C(=O)c2ccccc(=O)c2O)c(C)c1` stands 28.9 kMESF (inactive); under `CCCCCCCCn1sccc1=O`, 31.5 kMESF (inactive). Under `O=c1/c(=C/c2cccc3ccccc23)sc2ncnn12` stands 36.7 kMESF (inactive); under `c1ccc(-c2cccc(-c3ccccn3)n2)nc1`, 38.3 kMESF (inactive). Under `C/C(=N\NC(=O)c1cc2ccccc2cc1O)c1ccccn1` stands 47.9 kMESF (inactive); under `COc1ccc(CCNC2=C(Cl)C(=O)N(CCc3ccc(OC)c(OC)c3)C2=O)cc1OC`, 41.5 kMESF (inactive). With `Cn1ncc(S(=O)(=O)Cc2ccccc2)c(Cl)c1=O`, the GFP fluorescence (kMESF) is 43.9 kMESF (inactive).

Turning to `CCc1ccc2c(c1)/C(=C/C(=O)c1cccs1)C(=O)N2`, the GFP fluorescence (kMESF) was 42.4 kMESF (inactive). `Cc1cc(C(=O)COC(=O)c2ccc[nH]c2=O)c(C)n1-c1ccccc1F`: the GFP fluorescence (kMESF) was 24.1 kMESF (inactive).

As to `COc1cc(N=c2ssnc2Cl)c(OC)cc1Cl`, the GFP fluorescence (kMESF) was 27.6 kMESF (inactive) and 26.1 kMESF (inactive). For `COc1ccc(/C=C2\C(=O)ON=C2c2ccccc2)cc1`, the GFP fluorescence (kMESF) is 28 kMESF (inactive). In the case of `O=C(c1ccccc1)c1ccccc1N1C(=O)C=CC1=O`, the GFP fluorescence (kMESF) was 38 kMESF (inactive). For the compound `O=C(Oc1oc(-c2ccco2)nc1C=Nc1ccc(Cl)cc1)c1ccco1`, the GFP fluorescence (kMESF) is 42 kMESF (inactive). With `CC(Oc1ccc(Br)cc1)C(=O)Nc1nc(-c2ccccn2)cs1` (configuration not stated), the GFP fluorescence (kMESF) is 46.5 kMESF (inactive).

For the compound `C/C(=N/NC(=O)c1ccc(C(C)(C)C)cc1)c1ccccn1`, the GFP fluorescence (kMESF) is 55.7 kMESF (inactive).

For `COc1cc(N=c2ssnc2Cl)cc(OC)c1`, the GFP fluorescence (kMESF) is 38.8 kMESF (inactive). To `COc1ccc(N2CCN(C(=O)c3ccccc3)CC2)c([N+](=O)[O-])c1` belongs 40.6 kMESF (inactive); to `O=S(=O)(c1ccccc1)c1ccc(C(F)(F)F)cn1`, 43.8 kMESF (inactive). Under `COc1cc(/C=C2\C(=O)ON=C2c2ccccc2)cc(Br)c1O` stands 28.7 kMESF (inactive). For `COc1ccc([N+](=O)[O-])c(S(=O)(=O)c2ccccc2)n1`, the GFP fluorescence (kMESF) was 47.5 kMESF (inactive). To `O=S(=O)(/N=C(\Sc1ccc(Cl)cc1)c1ccccc1)c1ccccc1` belongs 36.1 kMESF (inactive).

As to `COc1ccc(N2C(=O)C(Cl)=C(Nc3c(C)n(C)n(-c4ccccc4)c3=O)C2=O)cc1`, the GFP fluorescence (kMESF) is 36.2 kMESF (inactive).

`O=C(COc1ccc(F)cc1Cl)Nc1nc(-c2ccccn2)cs1`: the GFP fluorescence (kMESF) was 33.9 kMESF (inactive).

With `Cc1ccc(C(=O)Oc2oc(-c3ccccc3)nc2C=Nc2ccc(N(C)C)cc2)cc1`, the GFP fluorescence (kMESF) was 39.3 kMESF (inactive). With `Cc1ccc(/C=C2/C(=O)ON=C2c2ccccc2)o1`, the GFP fluorescence (kMESF) is 40.1 kMESF (inactive).

Regarding `O=C1C(Cl)=C(Nc2ccccc2O)C(=O)N1CCc1ccccc1`, the GFP fluorescence (kMESF) was 39.3 kMESF (inactive). With `O=C(COc1c(Br)cc(Br)c2cccnc12)N1CCc2ccccc2C1`, the GFP fluorescence (kMESF) was 28.6 kMESF (inactive).

For `COc1cc(/C=C2/C(=O)ON=C2c2ccccc2)ccc1O`, the GFP fluorescence (kMESF) is 25 kMESF (inactive). Under `Cc1ccc(C(=O)Sc2cccccc2=O)cc1` stands 33 kMESF (inactive). For `Cc1ccsc1/C=C1\C(=O)NC(=S)N(C)C1=O`, the GFP fluorescence (kMESF) is 20.6 kMESF (inactive). In the case of `CCCCc1ccc(/C=C2/C(=O)ON=C2c2ccccc2)s1`, the GFP fluorescence (kMESF) was 38.4 kMESF (inactive). To `CCOC(=O)C(C(=O)OCC)C(C(=O)OCC)N1CCOCC1` (configuration not stated) belongs 41 kMESF (inactive); to `N=C1S/C(=C\c2ccco2)C(=O)N1c1nccs1`, 40.4 kMESF (inactive). As for `O=C1C=CC(=O)N1c1cccc(-c2ccccc2)c1`, the GFP fluorescence (kMESF) is 44.7 kMESF (inactive).

For `Cc1cc(O)c(C(=O)/C=C/c2c(F)c(F)c(F)c(F)c2F)c(=O)o1`, the GFP fluorescence (kMESF) was 21.2 kMESF (inactive).

Regarding `O=C(Nc1nc(-c2ccccn2)cs1)c1cc2ccccc2o1`, the GFP fluorescence (kMESF) was 38.7 kMESF (inactive). Consider `Cc1cc(C)c(S(=O)(=O)N2CCC(C(=O)NCc3ccc(Cl)cc3Cl)CC2)c(C)c1`, for which the GFP fluorescence (kMESF) was 37.4 kMESF (inactive).

Take `CC(C)[C@@]1(c2ccccc2)ON(c2ccccc2C(F)(F)F)C1=O`: the GFP fluorescence (kMESF) is 37.1 kMESF (inactive). Consider `COc1ccc(Cl)cc1C(Nc1cccnc1)c1ccc2cccnc2c1O` (configuration not stated), for which the GFP fluorescence (kMESF) was 36.3 kMESF (inactive).

For `Cc1c(Br)c(=O)oc2c(Br)c(O)c(O)cc12`, the GFP fluorescence (kMESF) is 38 kMESF (inactive). As to `CCN(CC)C(=S)SSC(=S)N(CC)CC`, the GFP fluorescence (kMESF) is 37.5 kMESF (inactive). `CCN(CC)c1ccc(/C=C2/C(=O)c3ccc(C(=O)O)cc3C2=O)cc1`: the GFP fluorescence (kMESF) was 655 kMESF (inactive). Turning to `O=C1NC(=O)N(c2ccccc2)C(=O)/C1=C/c1ccc(Sc2ccccc2)o1`, the GFP fluorescence (kMESF) was 35.9 kMESF (inactive). To `CCOc1ccc(N2C(=O)C(Cl)=C(Nc3ccccc3O)C2=O)cc1` belongs 43.1 kMESF (inactive); to `CS(=O)(=O)c1sc(C#N)c2c1C(=O)CC(c1ccccc1)C2` (configuration not stated), 38.9 kMESF (inactive); to `Cc1ccc(/C=C2/SC(=S)N(C3CCCCC3)C2=O)o1`, 41.3 kMESF (inactive). As to `CCOC(=O)Cn1cc(/C=C/[N+](=O)[O-])c2ccccc21`, the GFP fluorescence (kMESF) is 43.7 kMESF (inactive). As to `C[n+]1ccc(/C=C/c2c[nH]c3ccccc23)cc1`, the GFP fluorescence (kMESF) is 44 kMESF (inactive). As for `O=C1C=CC(=O)N1c1ccc(OC(F)F)cc1`, the GFP fluorescence (kMESF) is 27.8 kMESF (inactive). In the case of `CC(C)(C)C1C/C(=C/c2ccccn2)C(=O)/C(=C/c2ccccn2)C1` (configuration not stated), the GFP fluorescence (kMESF) is 32.6 kMESF (inactive). On to `Oc1ccc(CNc2ccccc2)c2cccnc12`, for which the GFP fluorescence (kMESF) was 36.5 kMESF (inactive). Turning to `COc1cc(SSc2cc(OC)cc([N+](=O)[O-])c2N)c(N)c([N+](=O)[O-])c1`, the GFP fluorescence (kMESF) was 48.9 kMESF (inactive). As to `CCCCNc1c2c3c(cccc3n(C)c1=O)C(=O)c1ccccc1-2`, the GFP fluorescence (kMESF) was 36.3 kMESF (inactive).

In the case of `O=C(c1ccccn1)c1conc1C(=O)c1ccc(Br)cc1`, the GFP fluorescence (kMESF) was 39.4 kMESF (inactive). For `CC1=CC(=O)C(C(C)C)=C/C1=N/OS(=O)(=O)c1ccccc1`, the GFP fluorescence (kMESF) is 36.5 kMESF (inactive). On to `CCOC(=O)CSC1=NC(=O)/C(=C/c2ccc(Br)cc2)S1`, for which the GFP fluorescence (kMESF) was 37 kMESF (inactive). On to `Nc1nc(N)c2nc(CNc3ccc(C(=O)NC(CCC(=O)O)C(=O)O)cc3)cnc2n1` (configuration not stated), for which the GFP fluorescence (kMESF) is 46 kMESF (inactive). Under `Cc1cc(C2CCCCC2)n(O)c(=O)c1` stands 37.5 kMESF (inactive); under `Clc1cnc(N/N=C/c2cccs2)c(Cl)c1`, 40.5 kMESF (inactive).

Consider `COC(=O)c1cc(N2C(=O)C3C(C2=O)C2(C)C=CC3(C)O2)ccc1Cl` (configuration not stated), for which the GFP fluorescence (kMESF) is 47.1 kMESF (inactive).
